Reference: patent US10590106B2, “Certain chemical entities, compositions, and methods” (NeuPharma, Inc., priority 2012, dated 2020)

Columns and labels:
BRAF V600E = BRAF V600E (Homo sapiens (Human), UniProt P15056, V600E); assay: Inhibitory activity against kinase BRAF V600E, Z'-LYTE method (Invitrogen); format: biochemical; conditions: 1 μM compound; read-out: Inhibition (% inhibition at 1 μM) against BRAF V600E
Method: (§1) Inhibitory activities Inhibitory activities of compounds against BRAF, and BRAF V600E were measured by Invitrogen using Z′-LYTE® Method as briefly described in the following. 4× Test compounds are dissolved in 1% DMSO. […] ATP solutions are diluted to a 4×ATP working concentration in Kinase Buffer (50 mM HEPES pH 7.5, 0.01% BRIJ-35, 10 mM MgCl2, 1 mM EGTA). Reaction started by 30-second shaking of mixture consisting of 2.5 μL 4× test compound, […] and 2.5 μL 4×ATP Solution on Bar-coded Corning, low volume NBS, black 384-well plate (Corning Cat. #3676). Then the mixture was incubated for 60-minute at room temperature for the kinase reaction, followed by addition of 5 μL of a 1:1024 dilution of development reagent A and 30-second plate shake. The mixture was then incubated for another 60-minute at room temperature for development reaction. Fluorescence was read by plate reader. IC50 was calculated by plotting the concentration of compound vs the percentage of inhibition in treated wells using GraphPad Prism 5.
(§2) Table 2 and 3 show % inhibition at 1 μM of several compounds of the invention against BRAF and BRAF V600E, respectively, using Z′-LYTE® method.
The scale utilized in Table 4 is as follows: +++ less than 100 nM; and ++ greater than 100 nM.

KDR (VEGFR2) = KDR (VEGFR2) (Homo sapiens (Human), UniProt P35968); assay: Inhibitory activity against kinase KDR, Z'-LYTE method (Invitrogen); format: biochemical; conditions: 1 μM compound; read-out: Inhibition (% inhibition at 1 μM) against KDR
Method: Inhibitory activities of compounds against KDR (VEGFR2) were also measured by Invitrogen using Z′-LYTE® Method as described above with the following modification. The 2× KDR (VEGFR2)/Tyr 01 mixture is prepared in 50 mM HEPES pH 7.5, 0.01% BRIJ-35, 10 mM MgCl2, 1 mM EGTA. The final 10 μL Kinase Reaction consists of 0.5-11.7 ng KDR (VEGFR2) and 2 μM Tyr 01 in 50 mM HEPES pH 7.5, 0.01% BRIJ-35, 10 mM MgCl2, 1 mM EGTA. After the 1 hour Kinase Reaction incubation, 5 μL of a 1:256 dilution of Development Reagent B is added.
The scale utilized in Table 5 is as follows: +++ less than 100 nM; and ++ greater than 100 nM

A549 cells = assay: Inhibition of cancer cell growth, MTT or MTS assay, A549; format: cell-based; conditions: Homo sapiens, 72 h incubation
Method: (§3) Inhibition of cell growth by compounds was measured using MTT or MTS assay. Tumor cell lines were purchased from ATCC (American Type Culture Collection, Manassas, Va.). All cell lines were maintained in RPMI 1640 (Hyclone) supplemented with 10% fetal bovine serum (FBS, Hyclone), glutamine (2 mM, Hyclone), and antibiotics (penicillin 100 U/mL and streptomycin 50 μg/mL) at 37° C. in a humidified atmosphere of 5% CO2 in air. Taxol (as a positive control, Sigma) and compounds were dissolved in DMSO (Sigma), and the final concentration of DMSO in the medium was 1%. Tumor cells were plated in 96-well plates at densities of about 2000 (A375) or 4000 (A549 and Colo205) cells/well of a 96-well plate and allowed to adhere/grow for 24 h. They were then treated with various concentrations of drug and incubated for 72 h. For MTT method, medium was then removed by inverting and tapping the plates. 100 μL of MTT (0.5 mg/ml) was added to each well followed by an incubated at 37° C. for 4 h. MTT was then removed and 200 μL of DMSO was added to each well, and the ODs at 570 nm were measured after a 5 second shaking cycle in a 96-well spectrophotometer. For MTS method, 20 μL MTS (CellTiter 96 Aqueous One Solution, Promega) was added to each well followed by an incubated at 37° C. for 2-4 h, solutions were then directly put in a 96-well spectrophotometer, and the ODs at 490 nm were measured.
(§4) All concentrations of compounds were tested in triplicate and controls were averaged over 4 wells. IC50 was calculated by plotting the concentration of compound vs the percentage of inhibition in treated wells using GraphPad Prism 5. […] The scale utilized in Tables […] is as follows: +++ less than 1000 nM; ++ between 1000 nM and 5000 nM; and + greater than 5000 nM. The scale utilized in Table 8 is as follows: +++ less than 2000 nM; ++ between 2000 nM and 5000 nM; and + greater than 5000 nM.

A375 cells = assay: Inhibition of cancer cell growth, MTT or MTS assay, A375; format: cell-based; conditions: Homo sapiens, A-375; 72 h incubation
Method: as §3, §4

BRAF = BRAF (Homo sapiens (Human), UniProt P15056); assay: Inhibitory activity against kinase BRAF, Z'-LYTE method (Invitrogen); format: biochemical; conditions: 1 μM compound
Method: as §1, §2

Sequence of BRAF (P15056 whole entry): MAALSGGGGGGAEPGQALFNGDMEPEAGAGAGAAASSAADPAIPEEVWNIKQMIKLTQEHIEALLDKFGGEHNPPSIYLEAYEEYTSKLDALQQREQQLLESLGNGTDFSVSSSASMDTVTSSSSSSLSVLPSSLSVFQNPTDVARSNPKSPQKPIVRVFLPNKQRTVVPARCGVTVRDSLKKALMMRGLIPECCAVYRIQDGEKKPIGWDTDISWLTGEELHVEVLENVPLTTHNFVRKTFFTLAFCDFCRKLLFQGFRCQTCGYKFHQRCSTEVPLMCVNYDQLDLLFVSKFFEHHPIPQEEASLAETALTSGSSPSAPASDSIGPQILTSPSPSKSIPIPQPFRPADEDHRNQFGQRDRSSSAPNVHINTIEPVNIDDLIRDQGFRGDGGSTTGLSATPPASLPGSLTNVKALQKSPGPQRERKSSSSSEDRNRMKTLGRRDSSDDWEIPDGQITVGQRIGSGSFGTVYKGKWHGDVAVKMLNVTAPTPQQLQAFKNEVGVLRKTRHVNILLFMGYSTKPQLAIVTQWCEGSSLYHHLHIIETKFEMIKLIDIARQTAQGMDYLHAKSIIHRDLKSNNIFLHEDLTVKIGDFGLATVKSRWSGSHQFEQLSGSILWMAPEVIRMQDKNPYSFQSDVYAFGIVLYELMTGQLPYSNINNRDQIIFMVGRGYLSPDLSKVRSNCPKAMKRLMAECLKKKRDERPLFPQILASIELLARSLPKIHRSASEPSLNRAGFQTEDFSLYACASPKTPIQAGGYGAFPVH
Sequence of KDR (VEGFR2) (P35968 20-1356): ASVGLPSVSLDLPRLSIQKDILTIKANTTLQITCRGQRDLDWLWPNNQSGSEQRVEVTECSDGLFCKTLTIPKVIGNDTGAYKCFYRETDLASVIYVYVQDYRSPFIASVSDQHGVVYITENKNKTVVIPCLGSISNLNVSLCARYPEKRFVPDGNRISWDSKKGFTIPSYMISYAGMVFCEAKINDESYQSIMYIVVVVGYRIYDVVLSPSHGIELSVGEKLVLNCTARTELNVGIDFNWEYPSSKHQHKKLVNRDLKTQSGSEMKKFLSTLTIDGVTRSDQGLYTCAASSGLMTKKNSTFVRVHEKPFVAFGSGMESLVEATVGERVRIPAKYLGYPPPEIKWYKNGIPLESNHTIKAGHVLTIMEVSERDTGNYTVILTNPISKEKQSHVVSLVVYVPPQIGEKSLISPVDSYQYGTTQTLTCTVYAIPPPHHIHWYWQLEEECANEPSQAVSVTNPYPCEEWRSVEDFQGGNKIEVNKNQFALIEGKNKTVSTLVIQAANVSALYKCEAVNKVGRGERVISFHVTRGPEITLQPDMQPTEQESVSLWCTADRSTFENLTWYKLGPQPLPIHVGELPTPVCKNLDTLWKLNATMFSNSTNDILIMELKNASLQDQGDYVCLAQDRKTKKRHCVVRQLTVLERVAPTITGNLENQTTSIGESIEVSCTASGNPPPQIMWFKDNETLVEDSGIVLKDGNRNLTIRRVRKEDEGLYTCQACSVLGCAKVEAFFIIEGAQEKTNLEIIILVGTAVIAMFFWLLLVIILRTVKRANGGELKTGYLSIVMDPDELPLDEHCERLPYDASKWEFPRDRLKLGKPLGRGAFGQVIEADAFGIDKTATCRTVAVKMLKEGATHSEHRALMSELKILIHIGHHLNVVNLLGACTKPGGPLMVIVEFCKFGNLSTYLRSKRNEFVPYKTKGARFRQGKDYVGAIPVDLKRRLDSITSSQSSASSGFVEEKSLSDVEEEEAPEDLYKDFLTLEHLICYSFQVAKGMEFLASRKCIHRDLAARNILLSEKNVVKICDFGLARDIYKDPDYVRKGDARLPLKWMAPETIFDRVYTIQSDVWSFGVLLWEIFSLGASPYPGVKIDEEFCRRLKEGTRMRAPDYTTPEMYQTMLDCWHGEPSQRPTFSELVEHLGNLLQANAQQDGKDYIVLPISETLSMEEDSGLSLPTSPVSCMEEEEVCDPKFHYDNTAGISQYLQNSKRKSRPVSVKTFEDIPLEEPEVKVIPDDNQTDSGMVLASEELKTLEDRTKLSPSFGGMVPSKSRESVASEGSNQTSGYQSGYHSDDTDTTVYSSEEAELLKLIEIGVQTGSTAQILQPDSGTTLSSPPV
Sequence of BRAF V600E (P15056 whole entry V600E): as the sequence (P15056 whole entry) above, with V600E counted along it

O=C(Nc1cc(F)cc(Oc2ccc3ncc(N4CCOCC4)nc3c2)c1)Nc1ccc(Cl)c(C(F)(F)F)c1 [Compound C033, 1-(4-chloro-3-(trifluoromethyl)phenyl)-3-(3-fluoro-5-((3-morpholinoquinoxalin-6-yl)oxy)phenyl)urea]
inhibition at 1 µM (BRAF V600E): 70 to 89%
inhibition at 1 µM (KDR (VEGFR2)): 70 to 89%
IC50 (A549 cells): < 2 µM
IC50 (A375 cells): < 1 µM

O=C(Nc1cccc(C(F)(F)F)c1)Nc1ccc(F)c(Oc2ccc3ncc(N4CCOCC4)nc3c2)c1 [Compound C035, 1-(4-fluoro-3-((3-morpholinoquinoxalin-6-yl)oxy)phenyl)-3-(3-(trifluoromethyl)phenyl)urea]
inhibition at 1 µM (BRAF V600E): 70 to 89%
inhibition at 1 µM (KDR (VEGFR2)): 70 to 89%
IC50 (A549 cells): 2 to 5 µM
IC50 (A375 cells): < 1 µM

O=C(Nc1cccc(Oc2ccc3ncc(N4CCNCC4)nc3c2)c1)Nc1ccc(F)c(F)c1 [Compound C036, 1-(3,4-difluorophenyl)-3-(3-((3-(piperazin-1-yl)quinoxalin-6-yl)oxy)phenyl)urea]
inhibition at 1 µM (BRAF V600E): > 89%
inhibition at 1 µM (KDR (VEGFR2)): > 89%
IC50 (A549 cells): > 5 µM
inhibition at 1 µM (BRAF): > 89%

O=C(Nc1ccc(F)cc1)Nc1cccc(Oc2ccc3ncc(N4CCNCC4)nc3c2)c1 [Compound C038, 1-(4-fluorophenyl)-3-(3-((3-(piperazin-1-yl)quinoxalin-6-yl)oxy)phenyl)urea]
inhibition at 1 µM (BRAF V600E): > 89%
inhibition at 1 µM (KDR (VEGFR2)): > 89%
IC50 (A549 cells): > 5 µM
inhibition at 1 µM (BRAF): > 89%

O=C(Nc1cc(F)cc(F)c1)Nc1cccc(Oc2ccc3ncc(N4CCNCC4)nc3c2)c1 [Compound C039, 1-(3,5-difluorophenyl)-3-(3-((3-(piperazin-1-yl)quinoxalin-6-yl)oxy)phenyl)urea]
inhibition at 1 µM (BRAF V600E): > 89%
inhibition at 1 µM (KDR (VEGFR2)): 70 to 89%
IC50 (A549 cells): > 5 µM
inhibition at 1 µM (BRAF): > 89%

O=C(Nc1cccc(Oc2ccc3ncc(N4CCNCC4)nc3c2)c1)Nc1cccc(C(F)(F)F)c1 [Compound C040, 1-(3-((3-(piperazin-1-yl)quinoxalin-6-yl)oxy)phenyl)-3-(3-(trifluoromethyl)phenyl)urea]
inhibition at 1 µM (BRAF V600E): > 89%
inhibition at 1 µM (KDR (VEGFR2)): > 89%
IC50 (A549 cells): 2 to 5 µM
inhibition at 1 µM (BRAF): > 89%

O=C(Nc1cccc(Oc2ccc3ncc(N4CCNCC4)nc3c2)c1)Nc1ccc(Cl)c(C(F)(F)F)c1 [Compound C041, 1-(4-chloro-3-(trifluoromethyl)phenyl)-3-(3-((3-(piperazin-1-yl)quinoxalin-6-yl)oxy)phenyl)urea]
inhibition at 1 µM (BRAF V600E): > 89%
inhibition at 1 µM (KDR (VEGFR2)): > 89%
IC50 (A549 cells): < 2 µM
inhibition at 1 µM (BRAF): > 89%

O=C(Nc1ccc(F)cc1)Nc1cccc(Oc2ccc3ncc(N4CCOCC4)nc3c2)c1 [Compound C043, 1-(4-fluorophenyl)-3-(3-((3-morpholinoquinoxalin-6-yl)oxy)phenyl)urea]
inhibition at 1 µM (BRAF V600E): > 89%
inhibition at 1 µM (KDR (VEGFR2)): > 89%
IC50 (A549 cells): > 5 µM
inhibition at 1 µM (BRAF): 70 to 89%

O=C(Nc1cccc(Oc2ccc3ncc(N4CCOCC4)nc3c2)c1)Nc1ccc(F)c(F)c1 [Compound C044, 1-(3,4-difluorophenyl)-3-(3-((3-morpholinoquinoxalin-6-yl)oxy)phenyl)urea]
inhibition at 1 µM (BRAF V600E): > 89%
inhibition at 1 µM (KDR (VEGFR2)): 70 to 89%
IC50 (A549 cells): > 5 µM
inhibition at 1 µM (BRAF): 70 to 89%

O=C(Nc1cccc(Oc2ccc3ncc(N4CCOCC4)nc3c2)c1)Nc1cccc(C(F)(F)F)c1 [Compound C046, 1-(3-((3-morpholinoquinoxalin-6-yl)oxy)phenyl)-3-(3-(trifluoromethyl)phenyl)urea]
inhibition at 1 µM (BRAF V600E): > 89%
inhibition at 1 µM (KDR (VEGFR2)): 70 to 89%
IC50 (A549 cells): 2 to 5 µM
IC50 (A375 cells): 1 to 5 µM

O=C(Nc1cccc(Oc2ccc3ncc(N4CCOCC4)nc3c2)c1)Nc1ccc(Cl)c(C(F)(F)F)c1 [Compound C049, 1-(4-chloro-3-(trifluoromethyl)phenyl)-3-(3-((3-morpholinoquinoxalin-6-yl)oxy)phenyl)urea]
inhibition at 1 µM (BRAF V600E): 70 to 89%
inhibition at 1 µM (KDR (VEGFR2)): > 89%
IC50 (A549 cells): 2 to 5 µM
inhibition at 1 µM (BRAF): 70 to 89%

O=C(Nc1cccc(Cl)c1)Nc1cccc(Oc2ccc3ncc(N4CCNCC4)nc3c2)c1 [Compound C050, 1-(3-chlorophenyl)-3-(3-((3-(piperazin-1-yl)quinoxalin-6-yl)oxy)phenyl)urea]
inhibition at 1 µM (BRAF V600E): > 89%
inhibition at 1 µM (KDR (VEGFR2)): > 89%
IC50 (A549 cells): 2 to 5 µM
inhibition at 1 µM (BRAF): > 89%

O=C(Nc1ccc(Cl)cc1)Nc1cccc(Oc2ccc3ncc(N4CCNCC4)nc3c2)c1 [Compound C051, 1-(4-chlorophenyl)-3-(3-((3-(piperazin-1-yl)quinoxalin-6-yl)oxy)phenyl)urea]
inhibition at 1 µM (BRAF V600E): > 89%
inhibition at 1 µM (KDR (VEGFR2)): > 89%
IC50 (A549 cells): 2 to 5 µM
inhibition at 1 µM (BRAF): > 89%

O=C(Nc1cccc(F)c1)Nc1ccc(F)c(Oc2ccc3ncc(N4CCNCC4)nc3c2)c1 [Compound C059, 1-(4-fluoro-3-((3-(piperazin-1-yl)quinoxalin-6-yl)oxy)phenyl)-3-(3-fluorophenyl)urea]
inhibition at 1 µM (BRAF V600E): > 89%
inhibition at 1 µM (KDR (VEGFR2)): 70 to 89%
IC50 (A549 cells): 2 to 5 µM
inhibition at 1 µM (BRAF): > 89%

O=C(Nc1ccc(Oc2ccc3nccnc3c2)cc1)Nc1ccc(Cl)c(C(F)(F)F)c1 [Compound C076, 1-(4-chloro-3-(trifluoromethyl)phenyl)-3-(4-(quinoxalin-6-yloxy)phenyl)urea]
inhibition at 1 µM (BRAF V600E): 70 to 89%
inhibition at 1 µM (KDR (VEGFR2)): 70 to 89%
IC50 (A549 cells): > 5 µM
IC50 (A375 cells): 1 to 5 µM

O=C(Nc1ccc(Oc2ccc3ncc(N4CCOCC4)nc3c2)cc1)Nc1ccc(Cl)c(C(F)(F)F)c1 [Compound C084, 1-(4-chloro-3-(trifluoromethyl)phenyl)-3-(4-((3-morpholinoquinoxalin-6-yl)oxy)phenyl)urea]
inhibition at 1 µM (BRAF V600E): 70 to 89%
inhibition at 1 µM (KDR (VEGFR2)): > 89%
IC50 (A549 cells): 2 to 5 µM
IC50 (A375 cells): 1 to 5 µM

O=C(Nc1ccc(Oc2ccc3ncc(N4CCOCC4)nc3c2)cc1)Nc1ccc(F)c(C(F)(F)F)c1 [Compound C086, 1-(4-fluoro-3-(trifluoromethyl)phenyl)-3-(4-((3-morpholinoquinoxalin-6-yl)oxy)phenyl)urea]
inhibition at 1 µM (BRAF V600E): 70 to 89%
inhibition at 1 µM (KDR (VEGFR2)): > 89%
IC50 (A549 cells): 2 to 5 µM
IC50 (A375 cells): 1 to 5 µM

O=C(Nc1ccc(Cl)c(C(F)(F)F)c1)Nc1ccc(Oc2ccc3nccnc3c2)cc1F [Compound C095, 1-(4-chloro-3-(trifluoromethyl)phenyl)-3-(2-fluoro-4-(quinoxalin-6-yloxy)phenyl)urea]
inhibition at 1 µM (BRAF V600E): < 70%
inhibition at 1 µM (KDR (VEGFR2)): 70 to 89%
IC50 (A549 cells): 2 to 5 µM
IC50 (A375 cells): > 5 µM

O=C(Nc1ccc(F)c(C(F)(F)F)c1)Nc1ccc(Oc2ccc3nccnc3c2)cc1F [Compound C098, 1-(4-fluoro-3-(trifluoromethyl)phenyl)-3-(2-fluoro-4-(quinoxalin-6-yloxy)phenyl)urea]
inhibition at 1 µM (BRAF V600E): 70 to 89%
inhibition at 1 µM (KDR (VEGFR2)): < 70%
IC50 (A549 cells): > 5 µM
IC50 (A375 cells): 1 to 5 µM
